Consider 88 molecules from a melting point compilation (Tetko et al.; mined from patent text by program, amines drawn as free bases though some values may be those of a salt).

The molecule `O=C(NCC1CC(=O)N(Cc2ccccc2)C1)Nc1ccc(Cl)cc1` (stereo not drawn) displayed a melting point of 139 to 140 °C.
Under `Cc1cc(-c2[nH]c3ccc([N+](=O)[O-])cc3c2C)cc(C)c1O` stands 229 to 231 °C; under `CC1(C)CCC2(CC1)CC(=O)N(CCCn1c(=O)sc3ccc(Cl)cc31)C2=O`, 159 to 160 °C.
Under `CCCN1CC(NS(=O)(=O)N(CC)CC)CC2c3cccc4[nH]cc(c34)CC21` (stereo not drawn) stands 160 to 162 °C; under `O=c1ccc2cnccc2[nH]1`, 295 to 297 °C; under `Cc1nc2cccc3n(CC4CCN(S(=O)(=O)C(F)(F)F)CC4)c(=O)c1n23`, 150 to 152 °C.
Under `CCCCS(=O)(=O)Nc1ccc(CCCCOCCCCCCNCC(O)c2ccc(O)c(CO)n2)cc1` (stereo not drawn) stands 55 to 57 °C; under `CCCn1cc(Cc2ccc(C(=O)O)cc2OC)c2cc(CC3CCN(C)C3=O)ccc21` (stereo not drawn), 98 to 107 °C; under `CC#CCC(C)(C)C(=O)/C=C/[C@@H]1[C@H]2CC(=O)O[C@H]2C[C@H]1OC(=O)c1ccccc1`, 73 to 74 °C.
In turn, `O=C(N[C@H]1CCCNC1=O)c1ccc(F)cc1F` showed a melting point of 140 to 141 °C.
Under `CCCCCCCCCCCCCCCCCC[C@@H]1OC(=O)C(O)=C1O` stands 110 to 112 °C.
With `CC(C)(C(=O)NO)C(O)Cc1ccccc1` (stereo not drawn), the melting point lay within 95 to 96 °C.
Under `CCCCC(=O)c1c(C)nc2cc(OC)c(OC)cc2c1-c1ccc(OC)c(OC)c1` stands 119 to 120 °C.
As for `OC1CSC(Oc2cccnc2Cl)C(O)C1O` (stereo not drawn), the melting point came out at 153 °C.
`O=C(O)COCCCCN(c1cnc(-c2ccccc2)c(-c2ccccc2)n1)C1CCCCC1` gave a melting point of 130 to 131 °C.
Regarding `COc1cc(Br)c(OC)c(CC(=O)O)c1`, the melting point is 62 to 65 °C.
Under `Cc1noc(C)c1Cn1cc(N2C(=O)CNC2=O)cn1` stands 169 to 171 °C.
Under `O=Cc1ccc(-c2cc(C(F)(F)F)n(Cc3ccccc3)n2)o1` stands 76.5 to 77.5 °C.
Under `Nc1nc(N)c(-c2cc(Cl)ccc2Cl)c(C(F)(F)F)n1` stands 215 to 217 °C.
As to `CCCCOc1ncc(C(C)=O)cc1-c1nn2c(CC)nc(CN3CCOCC3)c2c(=O)[nH]1`, the melting point fell in the range of 145 to 149 °C.
Under `CCC(C)NC(C(=O)NCCCC(c1ccc(F)cc1)c1ccc(F)cc1)C(C)C` (stereo not drawn) stands 77 to 81 °C.
Under `CC1CCC(=NNc2ccccc2)c2nccc(=O)n21` (stereo not drawn) stands 163 to 164 °C; under `CC(C)(C)OC(=O)N1CCN(c2ccc(N3CCN(Cc4ccccc4)CC3)cc2)CC1`, 132 to 133 °C; under `CCOC(=O)c1cn2c3c(c(Br)c(F)cc3c1=O)OCC2C` (stereo not drawn), above 250 °C.
Under `Cn1nc(C(F)(F)F)cc1Oc1cc(Oc2cc(C(F)(F)F)nn2C)nc(Oc2cc(C(F)(F)F)nn2C)c1` stands 130 °C.
For the molecule `C=C(CO)COC(=O)NCCCCCCCCCCCCCCC`, the melting point is 60 to 62 °C.
Under `Cc1c(Cc2cccnc2)ccc2ccc(Br)cc12` stands 101 to 104 °C.
Under `CCCCCCCc1ccc(C2CC(CCCCCC)C(=O)O2)cc1` (stereo not drawn) stands 45.9 to 48 °C.
`CC(C)(C)c1cc(C2(C)NC(=O)NC2=O)cc(C(C)(C)C)c1O` (stereo not drawn) yielded a melting point of 260 °C.
Under `CC(=O)ON=C1CCCN(C(=O)c2ccc(NC(=O)c3ccccc3Cl)cc2)c2ccccc21` stands 142 to 144 °C; under `CC1(C)OC(=C(C#N)C#N)C(C#N)=C1/C=C/c1ccc(N)cc1`, 360 °C.
Under `CNC1(c2ccccc2)CCN(C(c2ccccc2)(c2ccccc2)c2ccccc2)CC1` stands 125 °C; under `Clc1ccc(C2=C[C@H](CN3CC=C(c4ccccc4)CC3)CCC2)cc1`, 138 to 141 °C; under `CCCCCCCCCCCCNC(=O)c1cc(-c2cccc(OC)c2)c(OCC(=O)O)c(-c2cccc(OC)c2)c1`, 57 to 58 °C.
Under `CC(=O)c1cc(Oc2ccc(NC(=O)Nc3ccccc3C(F)(F)F)cc2)ncn1` stands 149 to 151 °C; under `CCOC(=O)c1sc(Oc2ccc(NC(=O)OC(C)(C)C)cc2)c2c1CCc1cnn(C)c1-2`, 186 to 187 °C; under `COc1cc(N)c(Cl)cc1C(=O)N[C@H]1CCN(CCO)C[C@H]1OC` (relative stereo), 153 °C.
As for `Cc1sc(C=O)cc1C(=O)O`, the melting point was found to be 173 °C.
Under `CCOC(=O)CCCCn1cnc2ccncc21` stands 45 to 47 °C; under `COC(=O)CC[C@H]1CC[C@@H](NC(=O)N(NC(C)=O)c2ccc(C#N)cc2)CC1`, 132 to 134 °C.
Under `COc1cc(OCc2ccccc2)ccc1-c1nc2ncccc2[nH]1` stands 244 °C.
On to `c1ccc(Cc2ccccc2C2CCN(CCCOc3ccccc3)CC2)cc1`, for which the melting point was in the range of 139 to 140 °C.
Under `CCOC(=O)C[C@H](NC(=O)/C=C/Sc1ccccc1)C(=O)OCC` stands 100 to 102 °C; under `Cc1[nH]c2ccccc2c1CN1CCC(c2c(Cl)cccc2Cl)CC1`, 168 to 170 °C; under `O=C1Cc2ccccc2N1NCCCc1ccncc1F`, 114 to 116 °C.
Under `CC(C)(C)OC(=O)C1CCCN(C(=O)OCc2ccccc2)N1C(=O)C(Br)CCBr` (stereo not drawn) stands 81 to 82 °C; under `C[C@H](NP(=O)(Cc1ccccc1)Cc1ccccc1)C(=O)N1CCC[C@H]1C(=O)N[C@H](C)C(=O)OCc1ccccc1`, 82 to 85 °C; under `Cc1nn(C)c(C(=O)C(C#N)c2ccc(C(C)(C)C)cc2)c1C` (stereo not drawn), 178 °C.
Under `Cc1ccc2c(c1)C(=NNC(=N)N)CC2` stands above 250 °C; under `Cc1c(-c2ccc(Cl)cc2Cl)nc(C#N)n1S(=O)(=O)N(C)C`, 92 to 95 °C.
For the molecule `COCC(C)c1ccc(N2Cc3ccc(OC)cc3C2=O)cc1` (stereo not drawn), the melting point is 116 to 118 °C.
Under `CCCOc1cc(CCCOc2nn(C)cc2CC(=O)O)n(Cc2ccc(Cl)cc2Cl)n1` stands 77 to 81 °C.
Turning to `CCCC1=Nc2ccccc2CC(c2ccsc2)N1C` (stereo not drawn), the melting point lay within 44.5 to 46.5 °C.
Under `CC(=O)Nc1ccc(C=CC(=O)C2C(=O)OC(=O)C(C(C)=O)=C2O)cc1` (stereo not drawn) stands 230 to 231 °C.
Under `O=c1ccn(-c2cccc(C(F)(F)F)c2)nc1-c1ccnn1-c1cccc(F)c1` stands 104 to 105 °C; under `CCCCCCC(=O)NCc1cccc2c1C(=O)N(C1CCC(=O)NC1=O)C2=O` (stereo not drawn), 130 to 132 °C.
Under `O=[N+]([O-])c1cnccc1NCCN1CCC(Nc2nc3ccccc3n2Cc2ccc(CO)o2)CC1` stands 191 °C.
`c1ccc2c(c1)c1ccccc1n2-c1ccc(-c2ccc(-n3c4ccccc4c4ccccc43)cc2)cc1` displayed a melting point of 280 to 281 °C.
Regarding `CCOC(=O)c1cn(-c2ccc(Cl)cn2)cn1`, the melting point fell in the range of 163 to 164 °C.
Under `FC(F)(F)c1cc2c(cc1Cl)C(Cl)Cc1ccccc1S2` (stereo not drawn) stands 100 to 102 °C; under `CN1CCCC2CCCC(N(C)C(=O)Cc3ccc(Cl)c(Cl)c3)C21` (stereo not drawn), 92 °C.
Under `Cc1c(C)c2c(c(C)c1NC(=O)CC(C)(C)C)[C@@H](c1ccc(C(C)C)cc1)[C@H](C)O2` (relative stereo) stands 143 to 144 °C.
Under `CCOc1nc2ccccc2nc1N(CC)C(=O)N1CCN(c2cc(OC)cc(OC)c2)CC1` stands 144 to 146 °C; under `Cc1ccc(-c2ccc([Si](C)(C)C)cc2)nc1`, 66.1 °C; under `CCOC(=O)c1cc(C(=O)C=CN(C)C)c(=O)[nH]c1C(=O)OCC`, 71 °C.
`CCOC(=O)c1c(-c2ccccc2)csc1N1C(=O)c2ccccc2C1=O` showed a melting point of 163 to 164 °C.
Under `CC(C)N(Cc1ccc(Cl)c(Cl)c1)S(=O)(=O)c1cc2ccccc2s1` stands 133 to 135 °C.
For `CC(=O)NC[C@H]1CN(c2cc(F)c(N3CCC(O)(COCC(F)(F)F)CC3)c(F)c2)C(=O)O1`, the melting point lay in the range of 182 to 184 °C.
For the molecule `O=C1C(Cc2ncccc2Br)c2ccccc2C12COc1cc3c(cc12)OCCO3` (stereo not drawn), the melting point was 217 to 218 °C.
`CCCSc1cc(-c2c[nH]nc2C(F)(F)F)ccc1C(=O)OC`: the melting point lay within 114 to 116 °C.
Under `CCSc1ccc(-c2ncco2)c2c1C(=O)CC(C)C2` (stereo not drawn) stands 111 to 113 °C.
Under `Cc1cc(CC(=O)OC(C)(C)C)ccc1NC(=O)Nc1ccccc1F` stands 89 to 91 °C; under `Cc1cccc(Cn2cccc2C(=O)CC(=O)C(=O)O)c1`, 140 to 141 °C; under `O=c1cc(-c2ccncn2)nc2n1CCCCC2`, 148 to 150 °C.
Under `Cc1sc(-c2ccccc2)nc1COc1ccc(CON=C(CCC(=O)O)c2ccccc2)cc1` stands 99 to 100 °C; under `CC1N(CCCCCl)C(=O)C(C)(C)S1(=O)=O` (stereo not drawn), 71 to 73 °C; under `COC(=O)C12COc3cc(C(F)(F)F)ccc3C1=NN(C(=O)Nc1ccc(Br)cn1)C2` (stereo not drawn), 179 to 181 °C.
The molecule `O=c1c(O)coc2ccccc12` yielded a melting point of 178 to 179 °C.
Under `CN(C)S(=O)(=O)c1ccc(C(F)(F)F)cc1N` stands 65 to 70 °C; under `CCCCc1nc2ccccn2c(=O)c1-c1ccc(NC[C@H]2CCCO2)cc1`, 155 to 170 °C.
Under `COc1ccc(CSc2ccncc2)c2c1OC(C)(C)C2` stands 109 to 113 °C; under `NS(=O)(=O)c1ccc(-c2noc(-c3cnn4c(C(F)(F)F)cc(-c5ccc(Cl)cc5)nc34)n2)cc1`, 296 °C; under `CNC(=O)N1CCc2[nH]cnc2C1c1cccs1` (stereo not drawn), 230 °C.
Under `FC(F)(F)c1cccc(NC2CCCN(c3ccc(Cl)nn3)C2)c1` (stereo not drawn) stands 92.6 °C; under `CC(C)(C)c1cc(C(=O)Nc2ccc(Cl)c(C(=O)O)c2)cc(C(C)(C)C)c1O`, 265 to 267 °C; under `CC1Cc2c(N3CCCC(O)C3)c(F)cc3c(=O)c(C(=O)O)cn1c23` (stereo not drawn), 251 to 253 °C.
With `Cc1cccc2nc(C(S)c3ncnc4[nH]cnc34)n(-c3ccccc3F)c(=O)c12` (stereo not drawn), the melting point came to 152 °C.
The molecule `CCN(CC)CCC1(C#N)c2ccccc2COc2ccccc21` (stereo not drawn) displayed a melting point of 87 to 90 °C.

In general, melting point refers to the temperature, or range, at which the solid turns liquid.
